For test [1], the system named is TM4SF5-non-expressing cells (SNU449Cp). Briefly: 2D cell growth/proliferation, TM4SF5-non-expressing cells. In kind it is cell-based, human. To be noted: 2D environment (FIG. 3a). As for the experimental part:
The drugs treated were the positive control drug TSAHC or the ST-1-025 isoxazole compound at the given concentrations. From the time of starting culture (0 day), (FIG. 3a) in the case of 2D culture, the number of cells was measured after treating with the drug every 24 hours, or (FIG. 3b) in a 3D environment, the proliferation of cells (spheres) was observed and photographed with an optical microscope on the 5th and 7th days after a single drug treatment at the start of culture.

The test system of the next test is SNU449-EV cells. Briefly: Cell migration tracking, control cells. As to conditions: SNU449-EV, 2.5, 5.0, or 10.0 µM, 17 hours (FIG. 7). In kind it is cell-based, human. The method, then: (§1) SNU449-TM4SF5 cells, which were made to express TM4SF5 using a lentivirus in human hepatocellular carcinoma cells SNU449, and SNU449-EV cells, into which a control vector (empty vector, EV) was injected so that TM4SF5 is not expressed, were seeded to a density of 40% in 8-chamber plates (Thermo) coated with 10 µg/ml collagen type 1 (Advanced Biomatrix). Three hours after seeding in a cell culture environment containing 10% FBS (GenDEPOT), DMSO and drugs were treated in the culture medium at the indicated concentrations. After treating with the drugs, the positions of the same moving cells were repeatedly photographed using a microscope every 20 minutes for 17 hours. The cells were photographed using an IX81-ZDC microscope (Olympus) equipped with a UPLSAPO 10X2, NA0.4 Super Apochromatic objective lens (Olympus). While photographing the cells, a general cell culture environment was created by constantly injecting 5% CO2 at a rate of 40-60 mL/min at 37°C using a controller (Live Cell Instrument). The migration distance and path of the cells were calculated using the "Track Object" application of MetaMorph software (Molecular Devices LLC). […]

A further test deals with Alb-TG^Tm4sf5-Flag mice. Briefly: DEN-induced liver cancer model in TM4SF5 transgenic animals. In kind it is in vivo. The method, then: A liver cancer model was induced in 2-week-old male wild type (WT), Alb-TG^Tm4sf5-Flag [genetically modified animals in which Tm4sf5 expression is excessively regulated by the promoter of the Albumin gene, custom-made by Macrogen Co., Ltd.], or Tm4sf5^-/- KO C57BL/6N male animals by a single intraperitoneal injection (IP injection) of DEN (diethylnitrosamine, Sigma-Aldrich) at a concentration of 25 mg/kg, followed by raising for […]. After the DEN treatment, the animals were raised in a pathogen-free room animal facility where temperature and humidity were well controlled under a normal diet for 40 weeks. During the last 6 weeks, an isoxazole drug (dissolved in 40% DMSO) at the indicated concentration was treated by intraperitoneal injection twice a week. Forty-six weeks after the DEN injection, the animals were sacrificed, and liver tissues were analyzed through methods of tissue staining, Western blot, and qRT-PCR.
In cases where a liver cancer model is induced by treating animals with diethylnitrosamine (DEN), liver cancer formation was induced by a single intraperitoneal injection (IP injection) of DEN into 2-week-old animals, followed by raising them for 46 weeks. […] Thereafter, the animals were sacrificed, and liver tissues were obtained and analyzed. […]

For another test, the system named is SNU449-TM4SF5 cells. Briefly: Cell migration tracking, TM4SF5-expressing cells. In kind it is cell-based, human. As to conditions: SNU449-TM4SF5, 2.5, 5.0, or 10.0 µM, 17 hours (FIG. 7). As for the experimental part:
as §1

Data on two compounds can be found in patent EP4772500A1, “NOVEL ISOXAZOLE COMPOUND AS TM4SF5-SPECIFIC INHIBITOR AND USE THEREOF” (Seoul National University R&DB Foundation, priority 2023, dated 2025).

In the case of `COc1ccc(-c2cc(-c3ccc(N)cc3)no2)cc1` [ST-1-025, 4-(5-(4-methoxyphenyl)isoxazole-3-yl)aniline], in test [1], the growth or proliferation entry is “no significant difference”.
`COc1ccc(-c2cc(-c3ccc(NC(C)=O)cc3)no2)cc1` [ST-2-001, N-(4-(5-(4-methoxyphenyl)isoxazole-3-yl)phenyl)acetamide]: the cell migration result in the test on SNU449-EV cells is reported as “did not change”. For the same compound, the cancer formation result with Alb-TG^Tm4sf5-Flag mice (DEN 25 mg/kg, drug 5 mg/kg IP twice a week for the final 6 weeks, Alb-TG^Tm4sf5-Flag mice (FIG. 23b)) was “minimal or did not occur”. The “mRNA expressions of NK cell activating receptor factors such as SLAMF7, NKG2D, CRTAM, DNAM-1, and CD27” value in the test with Alb-TG^Tm4sf5-Flag mice (qRT-PCR of liver tissues (FIG. 23c)) is “partially recovered and increased”. In the test with SNU449-TM4SF5 cells, the “migration of the cells” value is given as “decreased according to the treatment with ST-2-001 in a concentration-dependent manner”.
